# Marks after values point to notes of the source that are not given here.
# Columns and labels:
# [1] = Plasma protein binding (PPB) assay, M; assay type: in vitro ADME; settings: mouse, dialysis 4 hr 37° C.
# Protocol: (§1) Assay procedure: 995 μL of blank plasma of various genera were weighed, and 5 μL of assay compound working solution (400 μM) or warfarin working solution (400 μM) was added so that the final concentrations of the assay compound and warfarin in plasma sample were each 2 μM. The samples were mixed thoroughly. The final concentration of DMSO (the organic phase) was 0.5%. 50 μL of the plasma samples of the assay compound and warfarin were pipetted to a sample receiving plate (in triplicate), and the corresponding volume of corresponding blank plasma or buffer was added immediately, so that the final volume in each sample well was 100 μL, wherein the volume ratio of plasma:dialysis buffer was 1:1. 500 μL of stop solution was then added to these samples. These samples were used as T0 samples for determination of recovery and stability. […] All samples were subjected to protein precipitation, and then analyzed by LC/MS/MS. Bound rate and recovery rate of protein were calculated using the following formulae: % Unbound=100*F/T, % Bound=100−% Unbound, % Recovery=100*(F+T)/T0 (wherein F is the peak area ratio of the compound in the dialysate after 4 h of dialysis; T is the peak area ratio of the compound in the plasma after 4 h of dialysis; To is the peak area ratio of the compound in the plasma sample at time zero).
# [2] = system: xenograft tumor of human diffuse large B lymphoma TMD8; assay: Xenograft tumor model of TMD8 in SCID mouse; assay type: in vivo
# Protocol: Xenograft tumor model of TMD8 in SCID mouse:
# Assay method: A tumor model of subcutaneously transplanted human diffuse large B lymphoma in mice was established. Tumor cells in logarithmic growth phase were collected, counted, and then resuspended in RPMI1640. The cell suspension was adjusted to a concentration of 4×10^7/mL, and mixed well with Matrigel (1:1). Tumor cells were inoculated subcutaneously on the right back of the mouse with a 1 mL syringe ([…]), 4×10^6 cells/mouse. When the animal tumor reached about 100-300 mm^3, the tumor-bearing mice were randomly divided into 6 groups according to the size of the tumor volume, with 6 mice in each group. On the day of the assay, the animals were administered the corresponding drugs according to the corresponding groups. The first group G1 was set as a negative control group, which was administered 10% NMP/60% PEG400/30% H2O by gavage alone. The second group G2 was set as a positive control group, which was given reference example 1 (compound 005-1) at a dose of 30 mg/kg. The third group G3 was given compound 4 at a dose of 30 mg/kg, once a day, for a total of 15 days.
# During the assay, animal weight and tumor size were measured 3 times a week, and clinical symptoms of animals were observed and recorded every day. Each dosing was referenced to the most recent animal weight.
# For tumor measurement, length (a) and width (b) were measured with digital vernier calipers, and the calculation formula for tumor volume (TV) was: TV=a×b^2/2.
# [3] = system: rat plasma protein; assay: In vivo plasma protein binding (PPB) assay in rat; assay type: in vitro ADME; settings: rat in vivo plasma samples; dialysis 4 h 37° C.; average of 3 or 4 results
# Protocol: 1.1 Preparation of Dialysis Membrane and Matrix
# On the day of the assay, frozen plasma was thawed in running cold tap water. After the plasma was completely thawed, the plasma was centrifuged at 3220×g for 5 min, and suspensions and sediments in the plasma were removed.
# A double-layer dialysis membrane was soaked in ultrapure water for about 1 h, and then taken out. The double-layer dialysis membrane was divided into two parts, and then soaked in ethanol-water (20:80, v:v) solution for 20 min or placed at 2-8° C. with a validity period of 1 month. Before the start of the assay, the dialysis membrane was rinsed twice with ultrapure water and soaked in ultrapure water for another 20 min for use.
# 1.2 The Mixing Steps of Compound Sample and the Dilution Process of Control Compound
# 1.2.1 The Mixing Steps of Compound Sample
# An appropriate amount of original samples were transferred to a collection tube of mixed samples, and the samples in the collection tube of mixed samples were mixed thoroughly.
# 1.2.2 The Dilution Process of the Control Compound
# The control compound was dissolved in dimethyl sulfoxide to obtain a 10 mM stock solution. A working solution of 400 μM was obtained by dilution with dimethyl sulfoxide. Preparation process of plasma sample: 995 μL of blank plasma was weighed, and 5 μL of warfarin working solution was added. […]
# [4] = Plasma protein binding (PPB) assay, H; assay type: in vitro ADME; settings: human, dialysis 4 hr 37° C.
# Protocol: as §1
# [5] = TMD8 xenograft in SCID mouse, 30 mg/kg PO, QD × 15, 14th day
structure (smiles),measurement,setting,value
CO[C@@H]1C[C@@H](CO)OC[C@@H]1Nc1ncnc2[nH]cc(C(=O)c3ccc(Oc4ccccc4)cc3Cl)c12 [Compound 4],"fraction unbound at 4 h, 2 μM",[1],0.004
same,inhibitory effect on xenograft tumor of human diffuse large B lymphoma TMD8 in mouse (in words),[2]; 30 mg/kg once a day,a certain inhibitory effect
same,relative tumor proliferation rate T/C,"[2]; 5th day, 30 mg/kg once a day",66.33%
same,relative tumor proliferation rate,"[2]; 14th day, 30 mg/kg once a day",21.53%
same,tumor volume inhibition rate TGI (%),"[2]; 14th day, 30 mg/kg once a day",79.04%
same,Tumor volume inhibition rate TGI,[2]; [5],79.04%
same,relative tumor proliferation rate T/C,[2]; [5],21.53%
same,Unbound PPB,[3],0.2% ^a
same,"fraction unbound at 4 h, 2 μM",[4],0.004

# Source: patent US20230357248A1, “PYRROLOPYRIMIDINE COMPOUND AS BTK INHIBITOR AND USE THEREOF” (MEDSHINE DISCOVERY INC., priority 2019, published 2023)
